# Data as given in the METLIN SMRT retention time set (Domingo-Almenara et al. 2019).
# Assay: gradient 5% acetonitrile 3 min, to 50% in 2 min, to 85% in 15 min, held 3 min, 100 µL/min
# Conditions: column: Zorbax Extend-C18 2.1 x 50 mm; eluents: water / acetonitrile, 0.1% formic acid
# How it was run: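 Over 3 months, pure standards in mixtures of ~100 molecules were run by HPLC coupled to a quadrupole time-of-flight mass spectrometer in positive and negative ionization mode. The column was a Zorbax Extend-C18 (2.1 × 50 mm, 1.8 μm) at 100 μL/min, eluted with water and acetonitrile each holding 0.1% formic acid, with 40 μL dead and 900 μL dwell volumes. Retention time was determined from adduct peaks chosen by software and checked manually.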
row,RP-LC retention time [s],SMILES
1,634,CN(C)c1ccc(CNC(=O)[C@@]23CCCC[C@H]2N(CCc2ccccc2)C(=O)CC3)cc1
2,685,CCc1ccc(-c2nc(-c3ccc4c(c3)ncn4CCN3CCOCC3)no2)cc1
3,727,Cc1ccc(-c2ocnc2C(=O)NCCCN2CCc3ccccc3C2)s1
4,612,Cc1cc(C)n(-c2ccnc(N3CCC(C(=O)NCc4cccnc4)CC3)n2)n1
5,881,CCOC(=O)C1CCN(c2cc(C)nc3nc(-c4ccc(OC)cc4)nn23)CC1
6,640,CC1CN(S(=O)(=O)c2cccc(-c3cn4ccccc4n3)c2)CC(C)O1 (configuration not stated)
7,753,Cc1cc(C)cc(S(=O)(=O)N2CCC3(CC2)NCCN=C3NCc2ccc(F)cc2)c1
8,855,CCN(CC)S(=O)(=O)c1ccc2c(c1)CC(C(=O)NC1CCCC1)N2C(C)=O (configuration not stated)
9,631,NS(=O)(=O)c1ccc(CNC(=O)C2CN(C(=O)c3ccc(F)c(F)c3)C2)cc1
10,624,COc1ccc(N2CCN(C(=O)CN3C(=O)CN(C)C(=O)c4ccccc43)CC2)cc1
11,931,CCOC(=O)c1sc(N2CCN(c3ccccc3)CC2)nc1N
12,1230,CC(C)(C)c1ccc(S(=O)(=O)N2CCCCC2C(=O)N2CCN(c3ccc(F)cc3)CC2)cc1 (configuration not stated)
13,1070,CCC(=O)Nc1ccc2c(c1)CN(C(=O)c1cccc(Cl)c1)C(C(=O)N1CCCC1)C2 (configuration not stated)
14,619,O=C(c1ccc(=O)n(CCN2CCCC2)c1)N1CCN(c2ccccc2F)CC1
15,623,O=C(NCCn1cnc2cc(C(=O)N3CCCC3)ccc21)Nc1cccc(Br)c1
16,745,COc1ccc(Cc2nnc(C3CCN(C(=O)Cc4cccs4)CC3)s2)cc1
17,1060,Cc1cc(C)c(S(=O)(=O)N2CCCCC2)c(C)c1N(C)S(=O)(=O)c1ccccc1
18,946,CCc1ccc(-c2cc(C(=O)N3CCN(c4cc(=O)n(C(C)C)c(=O)n4C(C)C)CC3)[nH]n2)cc1
19,889,CCOc1cccc(CNC(=O)c2cn(C)nc2S(=O)(=O)N2CCSCC2)c1
20,850,CCn1ccc2sc(C)c(C(=O)NCc3ccc(C)cc3)c2c1=O
21,750,O=C(c1cccc(OCC2CCCN(C(=O)C3CCCO3)C2)c1)N1CCCCC1 (configuration not stated)
22,925,CCn1cc(-c2nc(CC(=O)Nc3ccc4c(c3)OCCO4)cs2)c2cccnc21

row,RP-LC retention time [s],SMILES
1,622,CN(C)c1cc(OC2CCN(C(=O)c3cccc4[nH]ccc34)C2)ncn1 (configuration not stated)
2,668,Cc1c(-c2noc(C(=O)NCCN3CCCC3)n2)oc2c(C)cccc12
3,674,CCOC(=O)C1=C(CN(CC)Cc2ccccc2)NC(=O)NC1c1cccs1 (configuration not stated)
4,600,O=C(Cc1c[nH]c2ccccc12)NC1CCN(c2ccc(=O)[nH]n2)C1 (configuration not stated)
5,650,CCOc1ccc(S(=O)(=O)N2CCCC(C(=O)NCc3cccnc3)C2)cc1 (configuration not stated)
6,591,CN1C(=O)c2cccn2CC1CNC(=O)c1ccnn1C (configuration not stated)
7,792,COc1ccc(S(=O)(=O)N2C[C@@H]3C[C@H]2C[C@@H]3NC(=O)c2cccs2)cc1Cl
8,753,Cc1noc(C)c1CNC(=O)c1ccc2ncccc2c1
9,606,COC(=O)c1c(C)[nH]c(C(=O)N2CCC(CC(=O)N3CCN(c4ccccn4)CC3)CC2)c1C
10,1130,Cc1ccc(S(=O)(=O)c2cnc(N3CCN(c4cccc(C)c4)CC3)nc2N)cc1
11,553,Cc1oc(-c2[nH]ncc2C(=O)N2CCOCC2)cc1S(=O)(=O)N1CCN(C)CC1
12,679,O=C(Cc1cccs1)N1CCn2c(nnc2-c2ccccc2)C1
13,668,COC(=O)CCN(C(=O)c1ccc(OC(C)=O)cc1)c1ccccn1
14,753,CC1(C(=O)NC2CCCC2)Cn2cnc(C(=O)NCc3cccc(F)c3)c2C(=O)N1C1CC1 (configuration not stated)
15,1020,COc1cccc(-n2c(N3CCCC(C(=O)Nc4ccc(Cl)cc4)C3)nc3ccsc3c2=O)c1 (configuration not stated)
16,1090,CC1CCN(c2nc3c(c(=O)n(C)c(=O)n3C)n2Cc2ccccc2F)CC1
17,718,O=C(NCCC1CCN(C(=O)Nc2ccc(F)cc2)CC1)c1ccco1
18,670,Cn1ncc2c(N3CCSCC3)nc(C(=O)NC3CC3)nc21
19,873,CCc1ccc(N2C=C(C(=O)N3CCOCC3)S(=O)(=O)c3ccc(F)cc32)cc1
20,994,Cc1cccc(NC(=O)Nc2ccc3c(c2)CCN3S(=O)(=O)c2ccccc2)c1
21,794,Cc1nc(CNC(=O)[C@H]2CCCN2S(=O)(=O)c2ccc(Br)cc2)cs1
22,682,Cc1cccc(-n2ncc3c(NCCCN4CCCC4=O)ncnc32)c1

# Second part, the molecule before the results:
row,SMILES,RP-LC retention time [s]
1,Cc1ccc(-c2nnc(Cc3nc(-c4ccncc4)no3)o2)cc1F,814
2,O=c1c2sccc2n(Cc2nc(-c3ccccc3)no2)c(=O)n1Cc1ccccc1,985
3,C/C(=C\c1csc(C)n1)C1C[C@@H]2O[C@]2(C)CCC[C@H](C)[C@H](O)[C@@H](C)C(=O)C(C)(C)[C@@H](O)CC(=O)N1 (some centres not stated),668
4,Cc1ccccc1-c1nnc(COc2ccc(NC(=O)c3ccsc3)cc2)o1,911
5,COc1ccc(C(=O)Nc2ccc3c(c2)Sc2ncccc2C(=O)N3C(C)C)cc1F,894
6,C[C@@H]1CN(C(=O)c2ccoc2)C[C@H]1c1nc(-c2ccncc2)no1,678
7,Cc1ccc(Nc2c(-c3ccc(C)cc3)nc3nc(C)cc(C)n23)cc1,780
8,COc1cc(NC(=O)Nc2nccn(-c3ccccc3)c2=O)cc(OC)c1,886
9,Clc1ccc2nc(-c3ccccc3)c(Nc3ccc4c(c3)OCCO4)n2c1,746
10,O=C(CSc1nnnn1-c1ccccc1)c1ccc2c(c1)OCCO2,868
11,Cc1ccccc1-c1nnc(COc2ccc(NC(=O)c3n[nH]c4c3CCCC4)cc2)o1,975
12,O=C(C1CC1)N1CCC(c2noc(-c3cccnc3)n2)C1 (configuration not stated),631
13,Cc1nc(N2CCN(c3ncccn3)CC2)nc2c1C(=O)CCC2,886
14,Cc1nc2cc(N3CC(C(=O)Nc4ccccc4)CC3=O)ccc2o1 (configuration not stated),703
15,O=C(CN1C(=O)NC(c2ccc(Cl)cc2)C2=C1COC2=O)NCc1ccccc1Cl (configuration not stated),811
16,O=C(Cn1ccnc1-c1ccnc(N2CCCCC2)c1)NC1CCCCC1,624
17,COc1cccc(Nc2c(-c3ccc(N(C)C)cc3)nc3cnccn23)c1,771
18,CCC(=O)N1CCN(c2ccc(-n3c(=O)ccc4cnc5ccc(-c6cnc7ccccc7c6)cc5c43)cc2C(F)(F)F)CC1,861
19,Cc1nc2c(sc3cccc(F)c32)c(=O)n1CC(=O)Nc1ccccc1C(F)(F)F,841
20,O=C1N=C2C(=Nc3ccccc32)C(=O)N1CCN1CCN(c2ccccc2Cl)CC1,743
21,Cc1noc(C)c1-c1ccc(S(=O)(=O)NCCc2ccccc2)cc1,957
22,O=C(CCc1conc1-c1ccccc1)N1CCC(N2CCCCC2)CC1,616

row,SMILES,RP-LC retention time [s]
1,Cc1noc(C)c1-c1ccc(S(=O)(=O)NC2CCC(C)CC2)cc1 (configuration not stated),1030
2,CC(C)CNC(=O)c1cn(-c2ncccc2-c2nc(C(C)(C)C)no2)cn1,872
3,COc1cc([N+](=O)[O-])cc2sc(NC(=O)c3cc(=O)c4ccccc4o3)nc12,877
4,COc1ccccc1NC(=O)Cc1nnc(-c2ccc3ncccc3c2)o1,724
5,Cn1c(SCC(=O)Nc2nc(-c3ccccc3)cs2)nnc1-c1cc2ccccc2o1,961
6,Cc1noc(C)c1CCC(=O)Nc1nnc(-c2ccsc2)o1,628
7,COc1cc(-c2nnc(SCc3c(F)cccc3Cl)o2)cc(OC)c1OC,1070
8,O=C(c1ccc(F)c(F)c1)N1CCC2(CC1)N=C(c1cccc(Br)c1)NO2,935
9,O=c1ccn(-c2ccc(Cl)cc2)nc1-c1nc(-c2cccc(F)c2)no1,954
10,O=C1NC(=O)/C(=C\c2ccccc2Br)S1,821
11,Cc1ccc(-c2csc(NC(=O)CCCc3nc(-c4ccc(Cl)cc4)no3)n2)cc1,1240
12,Cc1ccc(NC(=O)N2CCc3nc(-c4ccccc4)ncc3C2)cc1F,988
13,CNC(=O)c1ccc(-n2nc(Sc3ccc(OC)cc3)ccc2=O)cc1,702
14,COc1ccc(NC(=O)Cn2nc3cc(C)nc(-c4ccccc4)n3c2=O)cc1OC,736
15,COc1ccc(-c2noc(C3CCCN3C(=O)c3ccc(Cl)cc3)n2)cc1OC (configuration not stated),959
16,Cc1ccoc1C(=O)N[C@@H]1CN(c2ncccn2)C[C@H]1CO,588
17,Cc1cc(Cl)ccc1NC1=NS(=O)(=O)c2ccccc21,834
18,CCSCCOC(=O)C1=C(C)NC2=C(C(=O)CCC2)C1c1ccccc1OC (configuration not stated),727
19,O=C(Cn1ccc2ccccc21)NCCCC(=O)Nc1cccc2cccnc12,786
20,N#CC1=CN(c2cccc(C(F)(F)F)c2)c2ccccc2S1(=O)=O,930
21,C=CCNC(=O)c1cn(-c2ccc(-c3nc(C(C)C)no3)cn2)cn1,824
